Where a name gives a salt, the structure may show the parent alone. Read-outs that look alike come from different tables or passages of the source.
How the values were obtained:
E. coli ATCC 25992 = assay: In vitro MIC, agar dilution; assay type: cell-based; settings: Escherichia coli, ATCC25992, read-out: minimum inhibitory concentration (MIC)
Method: (§1) The compounds of the invention were evaluated against several β-lactamresistant (for example methicillin-resistant, vancomycin resistant, and/or ampicillin-resistant) bacteria strains by determining the minimum inhibitory concentration (MIC, μg/ml) of each compound with respect to each strain. The MIC, the lowest concentration of antibiotic which inhibits growth of the test organism, was determined by the agar dilution method.
(§2) To determine the MIC for bacterial isolates, the test compound was incorporated in a series of two-fold dilutions into liquified Mueller-Hinton agar. Upon solidification, a number of different bacterial strains were spot inoculated with a replicating device onto the agar surface.
(§3) Aliquots of antimicrobial agents were prepared in phosphate buffered saline (PBS) at pH 7.2. Tween 20 or DMSO was used as a solubilizing vehicle as needed. Standard methods of vortexing, sonicating and gentle heat were used to facilitate solubilizing the test agent. […] A 1.28 mg/mL stock solution was used with a subsequent highest working concentration of 128 μg/mL. Serial two-fold dilutions were done through ≤0.25 μg/mL. Each drug level was tested in duplicate. Two-fold drug dilutions were done in sterile 50 mL tubes with a final drug volume of 5 mL. Upon the addition of 45 mL of molten agar, a 10-fold dilution resulted. Two, 25 mL. plates were then poured into 15×150 mm square Petri plates with grids and allowed to harden.
(§4) A control plate with a reference drug, either cefotaxime, vancomycin or imipenem, was used as the positive growth control. Stock concentrations of reference antibiotics were prepared and frozen at -80° C. […] All test plates were used within 24 hours of preparation.
(§5) Satisfactory results were obtained where the inoculum contained about 10^4 colony forming units (cfu)±0.5 logs. Starting with pure cultures of the test isolates on agar plates, a few isolated colonies were transferred to a tube of nutrient broth and allowed to grow 4-6 hours at 35-36° C. to reach log-phase growth. Dropwise addition of the broth culture to PBS was done to match a 0.5 McFarland turbidity standard equal to 10^8 cfu/mL. This was further diluted ten-fold in PBS to reach a working inoculum concentration of 10^7 cfu/mL. When 1 μL of the working inoculum was applied to the agar surface a concentration of about 10^4 cfu per spot was obtained.
(§6) Disposable sterile 1 μL loops were used to inoculate test plates, with each isolate in a designated grid on the agar plate. An alternate method of inoculation involved the use of a replica plater, a device with 48 steel pins allowing the simultaneous inoculation of multiple isolates. After the spots had dried, the plates were incubated at 35-36° C. for 16-20 hours. Endpoints were assessed as the minimum inhibitory concentration (MIC) of antimicrobial agent.

E. faecalis ATCC 29212 = assay: In vitro MIC, agar dilution; assay type: cell-based; settings: Enterococcus faecalis, ATCC29212, read-out: minimum inhibitory concentration (MIC)
Method: as §1, §2, §3, §4, §5, §6

E. faecalis VanB(Van^R) = assay: In vitro MIC, agar dilution; assay type: cell-based; settings: Enterococcus faecalis, read-out: minimum inhibitory concentration (MIC)
Method: as §1, §2, §3, §4, §5, §6

E. faecium A491(Amp^R) = assay: In vitro MIC, agar dilution; assay type: cell-based; settings: Enterococcus faecium, read-out: minimum inhibitory concentration (MIC)
Method: as §1, §2, §3, §4, §5, §6

E. faecium ATCC 35667 = assay: In vitro MIC, agar dilution; assay type: cell-based; settings: Enterococcus faecium, ATCC35667, read-out: minimum inhibitory concentration (MIC)
Method: as §1, §2, §3, §4, §5, §6

E. faecium VanA(Van^R) = assay: In vitro MIC, agar dilution; assay type: cell-based; settings: Enterococcus faecium, read-out: minimum inhibitory concentration (MIC)
Method: as §1, §2, §3, §4, §5, §6

P. aeruginosa ATCC 27853 = assay: In vitro MIC, agar dilution; assay type: cell-based; settings: Pseudomonas aeruginosa, ATCC27853, read-out: minimum inhibitory concentration (MIC)
Method: as §1, §2, §3, §4, §5, §6

[1] = tested on: S. aureus 76(Meth^R)(lac^+); assay: In vitro MIC, agar dilution; assay type: cell-based; settings: Staphylococcus aureus, read-out: minimum inhibitory concentration (MIC)
Method: as §1, §2, §3, §4, §5, §6

[2] = tested on: S. aureus ATCC 13709(Meth^S); assay: In vitro MIC, agar dilution; assay type: cell-based; settings: Staphylococcus aureus, ATCC13709, S. aureus ATCC 13709(Meth^S); read-out: minimum inhibitory concentration (MIC)
Method: as §1, §2, §3, §4, §5, §6

S. aureus ATCC 29213 = assay: In vitro MIC, agar dilution; assay type: cell-based; settings: Staphylococcus aureus, ATCC29213, read-out: minimum inhibitory concentration (MIC)
Method: as §1, §2, §3, §4, §5, §6

[3] = tested on: S. aureus ATCC 33593(Meth^R); assay: In vitro MIC, agar dilution; assay type: cell-based; settings: Staphylococcus aureus, ATCC33593, read-out: minimum inhibitory concentration (MIC)
Method: as §1, §2, §3, §4, §5, §6

[4] = tested on: S. aureus PC1(Meth^S)(lac^+); assay: In vitro MIC, agar dilution; assay type: cell-based; settings: Staphylococcus aureus, read-out: minimum inhibitory concentration (MIC)
Method: as §1, §2, §3, §4, §5, §6

[5] = tested on: S. aureus Spain #356(Meth^R); assay: In vitro MIC, agar dilution; assay type: cell-based; settings: Staphylococcus aureus, read-out: minimum inhibitory concentration (MIC)
Method: as §1, §2, §3, §4, §5, §6

[6] = tested on: S. haemolyticus 05(Meth^R); assay: In vitro MIC, agar dilution; assay type: cell-based; settings: Staphylococcus haemolyticus, read-out: minimum inhibitory concentration (MIC)
Method: as §1, §2, §3, §4, §5, §6

[7] = tested on: S. aureus Col(Meth^R)(lac^-); assay: In vitro MIC, agar dilution; assay type: cell-based; settings: Staphylococcus aureus, read-out: minimum inhibitory concentration (MIC)
Method: as §1, §2, §3, §4, §5, §6
The S. aureus Col strain is a high-level PBP2a producer, whereas S. aureus Col 8A, its isogenic partner, lacks PBP2a.

[8] = tested on: S. aureus strain ATCC 13709 (methicillin-susceptible); assay: Murine model for lethal bacteremic peritonitis; assay type: in vivo, female Swiss-Webster mice; settings: Staphylococcus aureus, 72 h
Method: Groups of 5 female Swiss-Webster mice (Simonsen, Gilroy, Calif.) each are challenged by the intraperitoneal (IP) route with tenfold increments of a bacterial inoculum. This permits calculation of the mean lethal dose (LD50) and the LD100. For preliminary evaluation of a new antibiotic, mice are challenged IP with an LD100 titer of bacteria. In two equal doses administered at the time of bacterial challenge and 2 hours later, groups of 10 mice each are treated subcutaneously with two-fold increments of the test drug and an antibiotic of known efficacy in mice and humans (i.e., positive control). Mice are observed for 72 h. Those alive at 72 h are considered long term survivors. The total drug dose in mg/kg that protects 50% of mice in a group from death is termed the mean protective dose (PD50). PD50 s are similarly determined for several pathogens. The quantitative endpoints for the new drug are then compared with those obtained with reference antibiotics.
Six ten-fold dilutions of inoculum suspended in 0.5 mL of sterilized 7% hog gastric mucin (Sigma) are injected IP in groups of 5 mice each. A control group of 5 mice receive mucin alone. Mice are observed for 72 h. Those alive at 72 h are considered long term survivors. The mean lethal dose (LD50) and 100% lethal dose (LD100) are determined by the probit test.
For antibiotic efficacy studies, mice are challenged IP with bacterial titers that will afford an LD100 for the test strain. In two equal doses administered at the time of bacterial challenge and 2 hours later, groups of 10 mice each are treated by the subcutaneous route (SC) with twofold increments of the test antibiotic; another group is treated similarly with a reference antibiotic of known efficacy in animals and man. Drug doses can range from 0.01 to 512 mg/kg. If the drug is poorly soluble, Tween 20 or propylene glycol will be employed to solubilize the drug. Animals are observed for 72 h. The 50% protective dose (PD50) is calculated in mg/kg by the probit method. The PD50 is the same as the 50% effective dose (ED50) and the 50% curative dose (CD50). Samples of blood from the hearts of all animals that die and from half the mice that survive are cultured on brain-heart infusion agar. Animals that received a protective dosage of the test drug will be alive at 72 h, although they may appear moderately ill to very ill during the observation period. […] Most of these mice will die within 6 to 48 h. Those alive at 72 h will be considered long term survivors.
(Compound numbers correspond to those in MIC tables; data reported for challenge with methicillin-susceptible S. aureus strain ATCC 13709.)

[9] = ATCC13709, sc, read-out: Survivors

SMILES	MIC (E. coli ATCC 25992) [µg/mL]	MIC (E. faecalis ATCC 29212) [µg/mL]	MIC (E. faecalis VanB(Van^R)) [µg/mL]	MIC (E. faecium A491(Amp^R)) [µg/mL]	MIC (E. faecium ATCC 35667) [µg/mL]	MIC (E. faecium VanA(Van^R)) [µg/mL]	MIC (P. aeruginosa ATCC 27853) [µg/mL]	MIC [1] [µg/mL]	MIC [2] [µg/mL]	MIC (S. aureus ATCC 29213) [µg/mL]	MIC [3] [µg/mL]	MIC [4] [µg/mL]	MIC [5] [µg/mL]	MIC [6] [µg/mL]	MIC [7] [µg/mL]	other results
N=C(N)SCc1nnsc1SC1=C(C(=O)O)N2C(=O)[C@@H](NC(=O)/C(=N\O)c3csc(N)n3)[C@H]2SC1 [Cmpd 4, (7R)-7-[(Z)-2-(aminothiazol-4-yl)-2-(hydroxyimino)acetamido]-3-(4-isothioureidomethyl-1,2,3-thiadiazol-5-ylthio)-3-cephem-4-carboxylate, trifluoroacetic acid salt]	4	0.5	4	> 32	2	4	> 32	8	0.25	0.25	4	0.25	8	8	8	
N=C(N)SCc1cnccc1SC1=C(C(=O)O)N2C(=O)[C@@H](NC(=O)/C(=N\OC3CCCC3)c3csc(N)n3)[C@H]2SC1 [Cmpd 8, (7R)-7-[(Z)-2-(aminothiazol-4-yl)-2-(cyclopentyloxyimino)acetamido]-3-(3-isothioureidomethylpyrid-4-ylthio)-3-cephem-4-carboxylate, trifluoroacetic acid salt]	2	0.5	0.5	32	2	8	> 32	4	1	1	4	1	4	4	2	
NCCSCc1cnccc1SC1=C(C(=O)O)N2C(=O)[C@@H](NC(=O)/C(=N\OC3CCCC3)c3csc(N)n3)[C@H]2SC1 [Cmpd 13, (7R)-7-[(Z)-2-(aminothiazol-4-yl)-2-(cyclopentyloxyimino)acetamido]-3-(3-aminoethylthiomethylpyrid-4-ylthio)-3-cephem-4-carboxylate, trifluoroacetic acid salt]	8	1	2	> 32	4	8	> 32	8	2	2	8	2	8	8	4	
CNCC(=O)NCCSCc1cnccc1SC1=C(C(=O)O)N2C(=O)[C@@H](NC(=O)/C(=N\O)c3csc(N)n3)[C@H]2SC1 [Cmpd 18, (7R)-7-[(Z)-2-(aminothiazol-4-yl)-2-(hydroxyimino)acetamido]-3-[3-(N-methylglycyl)aminoethylthiomethylpyrid-4-ylthio]-3-cephem-4-carboxylate, trifluoroacetic acid salt]	8	0.25	0.5	> 32	2	2	> 32	8	1	1	4	1	8	8		responders at 0.3125 mg/kg ([8]; ATCC13709, Dose 0.3125 mg/kg, SC, read-out: Survivors): 30%; responders at 0.625 mg/kg ([8]; ATCC13709, Dose 0.625 mg/kg, SC, read-out: Survivors): 20%; responders at 1.25 mg/kg ([8]; ATCC13709, Dose 1.25 mg/kg, SC, read-out: Survivors (converted)): 20%; responders at 2.5 mg/kg ([8]; ATCC13709, Dose 2.5 mg/kg, SC, read-out: Survivors): 20%; responders at 5 mg/kg ([8]; ATCC13709, Dose 5 mg/kg, SC, read-out: Survivors): 60%; ED50 ([8]; ATCC13709, SC, two equal doses, IP challenge, read-out: ED50): 4.44 mg/kg
CC(C)(CN)SCc1cnccc1SC1=C(C(=O)O)N2C(=O)[C@@H](NC(=O)/C(=N\O)c3csc(N)n3)[C@H]2SC1 [Cmpd 19, (7R)-7-[(Z)-2-(aminothiazol-4-yl)-2-(hydroxyimino)acetamido]-3-[3-(2-amino-1,1-dimethylethylthiomethyl)pyrid-4-ylthio]-3-cephem-4-carboxylate, trifluoroacetic acid salt]	8	1	0.5	> 32	1	2	> 32	8	0.5	0.5	8	0.5	8	16	8	
CN[C@H](CC(C)C)C(=O)N[C@H]1C(=O)N[C@@H](CC(N)=O)C(=O)N[C@H]2C(=O)N[C@H]3C(=O)N[C@H](C(=O)N[C@H](C(=O)O)c4cc(O)cc(O)c4-c4cc3ccc4O)[C@H](O)c3ccc(c(Cl)c3)Oc3cc2cc(c3O[C@@H]2O[C@H](CO)[C@@H](O)[C@H](O)[C@H]2O[C@H]2C[C@](C)(N)[C@H](O)[C@H](C)O2)Oc2ccc(cc2Cl)[C@H]1O [Vancomycin, vancomycin, reference compound]																ED50 ([8]; ATCC13709, sc): 1.94 mg/kg; responders at 0.625 mg/kg [8, 9]: 20%; responders at 1.25 mg/kg [8, 9]: 20%; responders at 2.5 mg/kg [8, 9]: 40%; responders at 5 mg/kg [8, 9]: 100%; responders at 10 mg/kg [8, 9]: 100%

Source: patent US6087355A, “Cephalosporin antibiotics” (Microcide Pharmaceuticals, Inc., priority 1996, dated 2000)
